Results as given in patent EP1840117A1, “Mono- and disubstituted 3-propyl gamma-aminobutyric acids” (Warner-Lambert Company LLC, priority 1999, dated 2000).

Assays:
DBA/2 mice = test: anticonvulsant protection (DBA2 mouse model of anticonvulsant efficacy, sound-induced seizures); type: in vivo; set-up: Anticonvulsant % Protect 2 hr: concentration or dose not given beside the values; details: for Anticonvulsant % Protect 2 hr: Table 1; for Anticonvulsant % Protect* 2h / Anticonvulsant % Protect* 1h: dosed at 30 mg/kg PO
[1] = anxiolytic activity relative to pregabalin (model not given); type: in vivo; details: dosed at 30 mg/kg PO; percent of pregabalin activity

## CC[C@@H](C)[C@H](CN)CC(=O)O
DBA/2 mice
  Anticonvulsant % Protect 2 hr: 0%

## CC(C)[C@@H](C)C(CN)CC(=O)O (some centres unmarked)
DBA/2 mice
  Anticonvulsant % Protect 2 hr: 100%

## CCC(CC)C(CN)CC(=O)O (centres unmarked)
DBA/2 mice
  Anticonvulsant % Protect 2 hr: 20%

## CCC(C)CC(CN)CC(=O)O (centres unmarked)
DBA/2 mice
  Anticonvulsant % Protect 2 hr: 100%

## CCCC(C)CC(CN)CC(=O)O (centres unmarked) [3-Aminomethyl-5-methyloctanoic acid, 3-Aminomethyl-5-methyl-octanoic acid]
DBA/2 mice
  Anticonvulsant % Protect* 2h: 100%

## CC(C)[C@H](C)[C@H](CN)CC(=O)O [(3R,4S)-3-Aminomethyl-4,5-dimethyl-hexanoic acid]
[1]
  Anxiolytic Activity* % Preg. Act.: 58%

## CC(C)[C@@H](C)[C@@H](CN)CC(=O)O [(3S,4R)3-Aminomethyl-4,5-dimethyl-hexanoic acid]
[1]
  Anxiolytic Activity* % Preg. Act.: 12%

## CCC[C@@H](C)C[C@H](CN)CC(=O)O.Cl [(3S,5R)-3-Aminomethyl-5-methyl-octanoic acid hydrochloride]
DBA/2 mice
  Anticonvulsant % Protect* 1h: 100%
  Anticonvulsant % Protect* 2h: 100%

## CCCCC[C@H](C)C[C@H](CN)CC(=O)O [(3S,5S)-3-Aminomethyl-5-methyl-decanoic acid]
DBA/2 mice
  Anticonvulsant % Protect* 1h: 0%

## CC(C)CC(CN)CC(=O)O (centres unmarked) [reference compound]
DBA/2 mice
  Anticonvulsant % Protect 2 hr: 100%
